Data reported in article PMC10066365, “Nemacol is a small molecule inhibitor of C. elegans vesicular acetylcholine transporter with anthelmintic potential” (Nature Communications, 2023).
Where “and” joins values, the source holds several entries; their conditions need not be identical. Equal values may be shown once.

Columns and labels:
[1] = tested on: Pristionchus pacificus; assay: Pristionchus pacificus motor disruption dose-response on solid media, 1 h; settings: for mean % any phene (coiled, jerky-Unc or paralyzed): Pristionchus pacificus young adults; for mean % any phene (coiled, jerky-Unc or paralyzed) / mean % any phene: mean of three biological replicates; for EC50: Pristionchus pacificus, 1 h, read-out: P. pacificus motor disruption EC50; for mean % any phene: any phenotype (coiled, jerky-Unc or paralyzed) at one hour; for rep 1 atypical locomotion / rep 1 coiled / rep 1 no phene / rep 1 paralyzed / rep 2 atypical locomotion / rep 2 coiled / rep 2 no phene / rep 2 paralyzed / rep 3 atypical locomotion / rep 3 coiled / rep 3 no phene / rep 3 paralyzed: count of 20 animals per trial, one hour
Protocol: Locomotor phenotype analyses were done in 24-well plates with 1 mL of MYOB substrate (27.5 g Trizma HCl, 12 g Trizma Base, 230 g bacto tryptone, 10 g NaCl, 0.4 g cholesterol (95%)) seeded with 25 µL of OP50 Escherichia coli on each well. Each compound was added to the MYOB substrate before pouring to achieve the desired final concentrations of 30 µM or 60 µM after diffusion through the media. Synchronized young adult worms are transferred into each well using a platinum wire pick. A Leica MZ75 stereomicroscope was used to visualize the movement of worms on the solid substrate. The specific dominant locomotor phenotype (i.e. ‘Punc’, ‘paralyzed’, ‘coiler’ or ‘wild-type locomotion’) was scored after the touch on the head with a platinum wire over a ~3–5 s of observation. […] Coiled animals were not scored as paralyzed despite sometimes not responding to light touch.

[2] = tested on: C. elegans; assay: C. elegans motor phenotype scoring on solid media (Punc/jerky-unc, coiled, paralyzed), wild-type young adults; type: in vivo, Caenorhabditis elegans; settings: for any phene, mean % fraction of young adults exhibiting any phenotype (coiled, jerky-Unc or paralyzed) / atypical locomotion (number of animals) / coiled (number of animals) / no phene (number of animals) / paralyzed (number of animals) / any phene (mean % fraction of young adults exhibiting any phenotype: coiled, jerky-Unc or paralyzed) / any phene: mean % fraction of young adults exhibiting any phenotype (coiled, jerky-Unc or paralyzed): one hour; for any phene, mean % fraction of young adults exhibiting any phenotype (coiled, jerky-Unc or paralyzed) / any phene (mean % fraction of young adults exhibiting any phenotype: coiled, jerky-Unc or paralyzed) / any phene: mean % fraction of young adults exhibiting any phenotype (coiled, jerky-Unc or paralyzed): mean of three biological replicates; for atypical locomotion (number of animals) / coiled (number of animals) / no phene (number of animals) / paralyzed (number of animals): young adults, 20 animals per trial; for EC50: Caenorhabditis elegans, any motor phenotype after 1 h on solid media, ± 95% CI, read-out: C. elegans - motor disruption EC50
[3] = tested on: Dirofilaria immitis L3/L4; assay: Dirofilaria immitis L3/L4 motility assay (DiroImager, 72 h); settings: Dirofilaria immitis L4
[4] = tested on: Dirofilaria immitis microfilariae; assay: Dirofilaria immitis microfilariae immobility assay (DiroImager, 72 h); settings: Dirofilaria immitis microfilariae
Protocol: We conducted experiments with the Missouri isolate of Dirofilaria immitis in two labs. In the first set of experiments, shown as part of Fig. 3c, D. immitis microfilariae and larval stage 3 (L3) worms were assayed in the laboratories of Bayer Animal Health GmbH (Monheim, Germany). For microfilariae immobility assays, approximately 250 freshly purified microfilariae were cultured in single wells of a 96-well microtiter plate containing supplemented RPMI 1640 medium[68],[69]. […] Microfilariae exposed to medium substituted with 1% DMSO were used as negative controls. Motility of microfilariae was evaluated after 72 h of drug exposure using an image-based approach—DiroImager, developed by Bayer Technology Services. As described in detail in refs. [68],[69], the DiroImager is an automated high-throughput platform that allows for high-resolution optical imaging of an entire 96-well microtiter plate.

[5] = conc 3.75, observed at one hour
[6] = 3.75uM, single replicate counts
[7] = 3.75uM, third c14 line of each analog
[8] = 15uM, second c14 line of each analog
[9] = 60uM, first c14 line of each analog
[10] = 3.75uM, single technical replicate
[11] = 15uM, single technical replicate
[12] = 60uM, single technical replicate

## O=C(C1CCCC1)N1CCN(c2ccc([N+](=O)[O-])cc2)CC1 [Nemacol-17]
[1]; [5]
  mean % any phene (coiled, jerky-Unc or paralyzed): 2.5%
[1]; conc 15, observed at one hour
  mean % any phene (coiled, jerky-Unc or paralyzed): 3.333%
[1]; conc 60, observed at one hour
  mean % any phene (coiled, jerky-Unc or paralyzed): 26.6667%
[1]
  EC50: > 60 µM
[2]; 3.75uM
  any phene, mean % fraction of young adults exhibiting any phenotype (coiled, jerky-Unc or paralyzed): 0%
[2]; [6]
  atypical locomotion (number of animals): 0
  coiled (number of animals): 0
  no phene (number of animals): 20
  paralyzed (number of animals): 0
[2]; 15uM
  any phene, mean % fraction of young adults exhibiting any phenotype (coiled, jerky-Unc or paralyzed): 0%
[2]; 15uM, single replicate counts
  atypical locomotion (number of animals): 0
  coiled (number of animals): 0
  no phene (number of animals): 20
  paralyzed (number of animals): 0
[2]; 60uM
  any phene, mean % fraction of young adults exhibiting any phenotype (coiled, jerky-Unc or paralyzed): 9.167%
[2]; 60uM, single replicate counts
  atypical locomotion (number of animals): 0 and 2 and 3 and 6
  coiled (number of animals): 0
  no phene (number of animals): 20 and 18 and 17 and 14
  paralyzed (number of animals): 0
[2]
  EC50: > 60 µM
[3]; 2 µM
  % effect (motility), DIROIM L4: 0%
[3]; 10 µM
  % effect (motility), DIROIM L4: 0%
[3]; 50 µM
  % effect (motility), DIROIM L4: 15%
[4]; 0.016 µM
  % effect (motility), DIROIM MF: 0%
[4]; 0.08 µM
  % effect (motility), DIROIM MF: 0%
[4]; 0.4 µM
  % effect (motility), DIROIM MF: 0%
[4]; 2 µM
  % effect (motility), DIROIM MF: 0%
[4]; 10 µM
  % effect (motility), DIROIM MF: 0%

## Cc1cc([N+](=O)[O-])ccc1N1CCN(CC2CCCCC2)CC1 [Nemacol-23, 1-(cyclohexylmethyl)−4-(2-methyl-4-nitrophenyl)piperazine]
[1]; [5]
  mean % any phene (coiled, jerky-Unc or paralyzed): 1.667%
[1]; conc 15, observed at one hour
  mean % any phene (coiled, jerky-Unc or paralyzed): 0.8333%
[1]; conc 60, observed at one hour
  mean % any phene (coiled, jerky-Unc or paralyzed): 7.5%
[1]
  EC50: > 60 µM
[2]; [7]
  any phene (mean % fraction of young adults exhibiting any phenotype: coiled, jerky-Unc or paralyzed): 15.8333%
[2]; [8]
  any phene (mean % fraction of young adults exhibiting any phenotype: coiled, jerky-Unc or paralyzed): 33.3333%
[2]; [9]
  any phene (mean % fraction of young adults exhibiting any phenotype: coiled, jerky-Unc or paralyzed): 63.3333%
[2]
  EC50: 32.1 ± 48.2 µM
[3]; 2 µM
  % effect (motility), DIROIM L4: 0%
[3]; 10 µM
  % effect (motility), DIROIM L4: 5%
[3]; 50 µM
  % effect (motility), DIROIM L4: 100%
[4]; 0.016 µM
  % effect (motility), DIROIM MF: 0%
[4]; 0.08 µM
  % effect (motility), DIROIM MF: 0%
[4]; 0.4 µM
  % effect (motility), DIROIM MF: 0%
[4]; 2 µM
  % effect (motility), DIROIM MF: 0%
[4]; 10 µM
  % effect (motility), DIROIM MF: 0%

## FC(F)(F)c1cccc(N2CCN(CC3CC4C=CC3C4)CC2)c1 (centres unmarked) [Nemacol-47]
[1]; [5]
  mean % any phene (coiled, jerky-Unc or paralyzed): 79.1667%
[1]; conc 15, observed at one hour
  mean % any phene (coiled, jerky-Unc or paralyzed): 100%
[1]; conc 60, observed at one hour
  mean % any phene (coiled, jerky-Unc or paralyzed): 100%
[1]
  EC50: 2.9 µM
[2]; [7]
  any phene (mean % fraction of young adults exhibiting any phenotype: coiled, jerky-Unc or paralyzed): 34.1667%
[2]; [8]
  any phene (mean % fraction of young adults exhibiting any phenotype: coiled, jerky-Unc or paralyzed): 81.6667%
[2]; [9]
  any phene (mean % fraction of young adults exhibiting any phenotype: coiled, jerky-Unc or paralyzed): 100%
[2]
  EC50: 5.7 ± 1.7 µM
[3]; 10 µM
  % effect (motility), DIROIM L4: 0%
[3]; 50 µM
  % effect (motility), DIROIM L4: 5%
[4]; 0.016 µM
  % effect (motility), DIROIM MF: 0%
[4]; 0.08 µM
  % effect (motility), DIROIM MF: 0%
[4]; 0.4 µM
  % effect (motility), DIROIM MF: 0%
[4]; 2 µM
  % effect (motility), DIROIM MF: 0%
[4]; 10 µM
  % effect (motility), DIROIM MF: 0%

## CCN1CCN(CC2CCCCC2)CC1 [Nemacol-11]
[1]; [5]
  mean % any phene (coiled, jerky-Unc or paralyzed): 0%
[1]; conc 15, observed at one hour
  mean % any phene (coiled, jerky-Unc or paralyzed): 0%
[1]; conc 60, observed at one hour
  mean % any phene (coiled, jerky-Unc or paralyzed): 3.333%
[1]
  EC50: > 60 µM
[2]; 3.75uM
  any phene, mean % fraction of young adults exhibiting any phenotype (coiled, jerky-Unc or paralyzed): 3.333%
[2]; [6]
  atypical locomotion (number of animals): 0 and 3 and 1
  coiled (number of animals): 0
  no phene (number of animals): 20 and 17 and 19
  paralyzed (number of animals): 0
[2]; 15uM
  any phene, mean % fraction of young adults exhibiting any phenotype (coiled, jerky-Unc or paralyzed): 6.667%
[2]; 15uM, single replicate counts
  atypical locomotion (number of animals): 0 and 5 and 3
  coiled (number of animals): 0
  no phene (number of animals): 20 and 15 and 17
  paralyzed (number of animals): 0
[2]; 60uM
  any phene, mean % fraction of young adults exhibiting any phenotype (coiled, jerky-Unc or paralyzed): 19.1667%
[2]; 60uM, single replicate counts
  atypical locomotion (number of animals): 1 and 0 and 13 and 9
  coiled (number of animals): 0
  no phene (number of animals): 19 and 20 and 7 and 11
  paralyzed (number of animals): 0
[2]
  EC50: > 60 µM
[3]; 2 µM
  % effect (motility), DIROIM L4: 10%
[3]; 10 µM
  % effect (motility), DIROIM L4: 5%
[3]; 50 µM
  % effect (motility), DIROIM L4: 0%
[4]; 0.016 µM
  % effect (motility), DIROIM MF: 0%
[4]; 0.08 µM
  % effect (motility), DIROIM MF: 0%
[4]; 0.4 µM
  % effect (motility), DIROIM MF: 0%
[4]; 2 µM
  % effect (motility), DIROIM MF: 0%
[4]; 10 µM
  % effect (motility), DIROIM MF: 0%

## FC(F)(F)c1cccc(N2CCN(CC3CCCCC3)CC2)c1 [Nemacol-49]
[1]
  EC50: > 60 µM
[1]; conc 3.75
  mean % any phene: 0%
  rep 1 atypical locomotion: 0
  rep 1 coiled: 0
  rep 1 no phene: 20
  rep 1 paralyzed: 0
  rep 2 atypical locomotion: 0
  rep 2 coiled: 0
  rep 2 no phene: 20
  rep 2 paralyzed: 0
  rep 3 atypical locomotion: 0
  rep 3 coiled: 0
  rep 3 no phene: 20
  rep 3 paralyzed: 0
[1]; conc 15
  mean % any phene: 0%
  rep 1 atypical locomotion: 0
  rep 1 coiled: 0
  rep 1 no phene: 20
  rep 1 paralyzed: 0
  rep 2 atypical locomotion: 0
  rep 2 coiled: 0
  rep 2 no phene: 20
  rep 2 paralyzed: 0
  rep 3 atypical locomotion: 0
  rep 3 coiled: 0
  rep 3 no phene: 20
  rep 3 paralyzed: 0
[1]; conc 60
  mean % any phene: 12.5%
  rep 1 atypical locomotion: 2
  rep 1 coiled: 0
  rep 1 no phene: 18
  rep 1 paralyzed: 0
  rep 2 coiled: 0
  rep 2 no phene: 17 and 19
  rep 2 paralyzed: 0
  rep 3 atypical locomotion: 4 and 3
  rep 3 coiled: 0
  rep 3 no phene: 16 and 17
  rep 3 paralyzed: 0
[2]; [10]
  atypical locomotion (number of animals): 3 and 2 and 1
  coiled (number of animals): 0
  no phene (number of animals): 17 and 18 and 19
  paralyzed (number of animals): 0
[2]; 3.75uM
  any phene: mean % fraction of young adults exhibiting any phenotype (coiled, jerky-Unc or paralyzed): 9.167%
[2]; [11]
  atypical locomotion (number of animals): 12 and 13 and 9
  coiled (number of animals): 3 and 1 and 2 and 0
  no phene (number of animals): 5 and 7 and 10 and 8
  paralyzed (number of animals): 0
[2]; 15uM
  any phene: mean % fraction of young adults exhibiting any phenotype (coiled, jerky-Unc or paralyzed): 65%
[2]; [12]
  atypical locomotion (number of animals): 13 and 16 and 10 and 14 and 15
  coiled (number of animals): 7 and 4 and 10 and 6 and 1 and 3
  no phene (number of animals): 0 and 5 and 2
  paralyzed (number of animals): 0
[2]; 60uM
  any phene: mean % fraction of young adults exhibiting any phenotype (coiled, jerky-Unc or paralyzed): 94.1667%
[2]
  EC50: 11.2 ± 1.6 µM
[3]; 10 µM
  % effect (motility), DIROIM L4: 0%
[3]; 50 µM
  % effect (motility), DIROIM L4: 10%
[4]; 0.016 µM
  % effect (motility), DIROIM MF: 0%
[4]; 0.08 µM
  % effect (motility), DIROIM MF: 0%
[4]; 0.4 µM
  % effect (motility), DIROIM MF: 0%
[4]; 2 µM
  % effect (motility), DIROIM MF: 0%
[4]; 10 µM
  % effect (motility), DIROIM MF: 0%
